Experiments:
[1] = Cyclic voltammetry of kynurenine metabolites with Cu(II); assay type: physicochemical; settings: metabolite 100 μM, cupric chloride 25 μM, PBS pH 7.4
Protocol: Cyclic Voltammetry—Cyclic voltammetry was performed at room temperature (22±2° C.) on ambient solutions using an EG&G PAR potentiostat, Model 273. The potentiostat was operated in Ramp Mode, generating a potential staircase waveform with a 0.25 mV step height. The potential window of +0.15 to −0.4V, in which Cu(I) is electroactive, but the metabolites are not, was scanned in both directions at a rate of 100 mV/sec. The current response was passed through a 5.3 Hz low pass filter. A minimum of three cycles were collected for each scan, ensuring the stability of the electrochemical response. The electrochemical cell consisted of an indium/tin oxide working electrode (Delta Technologies) with an active area of 0.32 cm^2, a platinum wire auxiliary electrode, and a Ag/AgCl (1 M KCl) reference electrode (Microelectrodes Inc.). Both the auxiliary and reference electrodes were positioned in the cell in close proximity to the working electrode. The working electrodes were pretreated with successive 10 minute sonications in Alconox (˜8 g/L), 95% ethanol, Milli-Q purified H2O (2×), and PBS (pH 7.4), followed by an overnight soak in PBS (pH 7.4). The ITO electrodes were subsequently “activated” immediately prior to use by successive cycling in PBS for three cycles in each of the following potential windows: +0.15 ? −0.4 V, +0.4 ? −0.4 V, and +1.0 ? −0.4 V. Cupric chloride (25 μM; Allied Chemical) was used as the Cu(II) source. Background voltammograms were obtained on each new electrode before testing the kynurenine pathway metabolites. PBS solutions of KYN, 3-HK, ANA, and 3-HAA (each at 100 μM) were separately scanned with and without added Cu(II) (25 μM). Each experiment also included a scan of Cu(II) (25 μM) in PBS without added test compound. All solutions were tested within minutes of being prepared. Each test was repeated to ensure the reproducibility of the results.
The voltammograms in FIGS. 3A–3D compare 3-HK and 3-HAA to their corresponding non-phenolic analogs, kynurenine (KYN) and anthranilic acid (ANA), in aqueous solutions of Cu(II) at pH 7.4. […] At potentials above +0.15 V, the metabolites undergo direct irreversible oxidation, a reaction that is not considered further here. Cyclic voltammetry of Cu(II) in PBS yielded a current response at ≈−100 mV due to reduction of the metal ion (scan “b” in each panel).

[2] = Hydrogen peroxide assay (DCF fluorometric); assay type: biochemical; settings: reacting with Cu(II), 37° C., dark
[3] = Hydrogen peroxide assay (DCF fluorometric); assay type: biochemical; settings: for hydrogen peroxide production: Cu(II) present, dark
[4] = Metal reduction assay, Cu(II) to Cu(I) (BC/BCA indicator); assay type: biochemical; settings: test compound 10 μM, Cu(II)-glycine 25 μM, PBS pH 7.4, 37° C., dark, one hour
αB-crystallin = target: T1, αB-crystallin (Bos taurus, UniProt P02510); assay: αB-crystallin cross-linking in total calf lens protein (Western blot); settings: metabolite 10 μM, five days 37° C. dark
T1 sequence (P02510 1-175): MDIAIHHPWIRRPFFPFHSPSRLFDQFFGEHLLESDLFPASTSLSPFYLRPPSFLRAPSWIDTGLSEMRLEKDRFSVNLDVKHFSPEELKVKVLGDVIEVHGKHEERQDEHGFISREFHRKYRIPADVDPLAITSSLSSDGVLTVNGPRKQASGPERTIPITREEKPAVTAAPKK

[5] = target: bovine serum albumin (BSA) (Bos taurus, UniProt P02769); settings: co-incubation with Cu(II), 5 days 37° C. dark
bovine serum albumin (BSA), sequence (P02769 25-607): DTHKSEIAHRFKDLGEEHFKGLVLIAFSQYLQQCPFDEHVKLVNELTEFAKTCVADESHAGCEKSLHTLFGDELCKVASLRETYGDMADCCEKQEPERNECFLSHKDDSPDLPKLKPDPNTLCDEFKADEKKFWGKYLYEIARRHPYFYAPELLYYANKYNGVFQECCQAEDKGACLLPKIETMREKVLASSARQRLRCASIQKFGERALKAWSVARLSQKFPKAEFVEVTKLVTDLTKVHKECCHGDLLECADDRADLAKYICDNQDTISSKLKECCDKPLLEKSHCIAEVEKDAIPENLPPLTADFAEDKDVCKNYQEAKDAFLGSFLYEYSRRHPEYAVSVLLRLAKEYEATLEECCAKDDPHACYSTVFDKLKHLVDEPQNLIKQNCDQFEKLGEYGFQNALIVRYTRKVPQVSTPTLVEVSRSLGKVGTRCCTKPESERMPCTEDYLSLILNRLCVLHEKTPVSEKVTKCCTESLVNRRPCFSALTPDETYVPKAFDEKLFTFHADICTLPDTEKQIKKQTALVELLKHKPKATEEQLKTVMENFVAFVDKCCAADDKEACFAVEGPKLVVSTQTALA

Nc1c(O)cccc1C(=O)CC(N)C(=O)O (centres unmarked) [3-HK, 3-hydroxykynurenine]
Cu(II) reduction wave in presence of metabolite [1]: nearly abolished | time dependence of hydrogen peroxide generation [2]: continuous over five hours | hydrogen peroxide generated relative to available Cu(II) [3]: approximately 3 fold | hydrogen peroxide generated ([3]; ambient gas conditions, CHELEX-treated PBS, FIG. 4C): approx. 3 μM | hydrogen peroxide production ([3]; ambient oxygen tension): 1.49 μM H2O2 | hydrogen peroxide production ([3]; high oxygen tension): 1.84 μM H2O2 | hydrogen peroxide production ([3]; low oxygen tension (continuous argon sparging)): 0.35 μM H2O2 | reduction of Cu(II) [4]: 100% | αB-crystallin cross-linking in the presence of Cu(II) (αB-crystallin; Cu(II) 10 μM): dramatically enhanced | αB-crystallin cross-linking (αB-crystallin; no added Cu(II)): apparent dimers and higher order oligomers were observed | BSA protein depletion with Cu(II) [5]: the monomer was depleted without emergence of apparent detectable cross-linked species
